From US20200405687A1, “METHODS FOR THE TREATMENT OF INFECTION” (Corbus Pharmaceuticals, Inc., priority 2016, published 2020)

Test system: UV-killed Escherichia coli
Assay: Skin challenge (blister) model, intradermal UV-killed E. coli in healthy volunteers (Example 3)
Format: in vivo, humans
Experimental: The ability of administration of a pharmaceutical composition including ajulemic acid to treat infection was assayed in a skin challenge model. A self-resolving acute inflammatory response was triggered by the intradermal injection of UV-killed Escherichia coli into the forearm of healthy volunteers. […] This study was performed to determine whether ajulemic acid promotes the resolution of infection at the site of inflammation, thereby treating that infection.
Cells and exudates were harvested at several time points following injection of UV-killed E. coli by applying negative pressure over the inflamed site.
The study included four experimental groups (n=10 in each group): • 1) Placebo, twice daily for four days • 2) Ajulemic acid, 5 mg, twice daily for four days • 3) Ajulemic acid, 20 mg, twice daily for four days • 4) Prednisone, 15 mg daily for four days
The volunteer (healthy males, 18-50 years) were randomly allocated to one of the above three groups and orally administered the test drug for four consecutive days. On the morning of the fourth day (after intake of the first dose), experimental acute inflammation was elicited by infection with UV-killed E. coli. The drug and the placebo were provided as capsules.
UV killed E. coli (Strain: NCTC 10418, Source: Public Health England, UK) were prepared as follows. E. coli described were grown overnight in Luria Broth (Sigma) at 37° C. The next morning, the bacteria were washed twice in sterile PBS (2500 g, 20 min, 4° C.) and resuspended in a sterile petri dish.
Bacteria were then killed by exposure to an ultraviolet light (UV) source (302 nm, ChemiDoc, trans-UV mode; Bio-Rad laboratories) for 60 min and then washed again in sterile saline. Bacterial counts were determined by optical density (OD600=0.365 equates to […] E. coli/ml). UVKEc were resuspended in a volume of sterile saline to obtain the count of 1.5×10^8/ml, aliquoted into sterile eppendorf tubes and then frozen at −80° C. until used for injections.
After disinfecting and shaving the skin, 1.5×10^7 UVKEc in 100 μl saline were injected intradermally into a marked site on the volar aspect of each forearm. To characterize the treatment of infection using ajulemic acid, each forearm was allotted to one of the predefined time-points namely 4, 8, 14, 24, 48 or 72 hours (h). Thus the effects of intradermal injection of UVKEc were allowed to progress for the duration of the time-point after which a suction blister was raised over the marked injection site, and then aspirated immediately. In summary, volunteer had two injection sites, one on each forearm, and contributed to two time points. On a separate group of volunteers, blister was raised on the naïve skin and treated as the baseline time point. Study time-points were discussed with volunteers before consenting.
Laser Doppler Imager (moor LDI-HIR, Moor Instruments Ltd, Axminster, Devon, UK) was used to quantify the blood flow at the site of infection. At predefined time points after injection of UVKEc, the forearm was placed under the scanner at a fixed distance to scan a fixed area. The scanner emits a laser beam, a portion of which is scattered by red blood cells present at the inflamed area. The scattering causes a change in frequency of the reflected light which is then detected by a photo detector. The velocity and concentration of red blood cells at the site directly affect the Doppler frequency shifts and account for the signal strength measured in arbitrary perfusion units. […] The total blood flow (measured in perfusion units) was calculated as product of number of valid pixels above background signal (Cut-off=300 perfusion units) and the mean blood flow signal over the valid pixels 11, 12.
To obtain the exudate from the site of infection, a 10 mm diameter suction blister was induced directly over the site of injection. […]

In the case of `C[C@]12C=CC(=O)C=C1CC[C@@H]1[C@@H]2C(=O)C[C@@]2(C)[C@H]1CC[C@]2(O)C(=O)CO` [prednisone, reference compound], the “rise in C-reactive protein (CRP) levels in serum” value (after UVKEc triggered acute inflammation, multiple time points) is reported as “does appear to inhibit the rise in CRP”, the “infiltration of neutrophils at the site of inflammation (blister exudate)” value (ajulemic acid 5 mg or 20 mg BID, prednisone 15 mg daily, 4 h and 10 h, relative to placebo) is reported as “decrease in the infiltration of neutrophils” and the “levels of endotoxin at the site of injection” value (ajulemic acid 5 mg or 20 mg BID, prednisone 15 mg daily, 4 hr and 10 hr, limulus amoebocyte lysate test) is reported as “appears to increase the levels of endotoxin”. For the same compound, the bacterial clearance (prednisone 15 mg daily, four days) was “does not increase bacterial clearance and may slow the rate of bacterial clearance”.
